According to PubChem BioAssay (NCI):
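Following 48 hours of exposure in 96-well plates, responses at five concentrations were used to interpolate endpoints linearly. TGI: total growth inhibition.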

What was measured:
Assay in all cases: NCI tumour cell line growth inhibition, 48 h
MCF7 breast = test system: MCF7 breast
MDA-MB-231 breast = test system: MDA-MB-231 breast
EKVX NSCLC = test system: EKVX NSCLC
M14 melanoma = test system: M14 melanoma
KM12 colon = test system: KM12 colon
T-47D breast = test system: T-47D breast
NCI-H522 lung = test system: NCI-H522 lung
HS 578T breast = test system: HS 578T breast
OVCAR-4 ovarian = test system: OVCAR-4 ovarian
ACHN renal = test system: ACHN renal
SN12C renal = test system: SN12C renal
MDA-MB-435 = test system: MDA-MB-435
OVCAR-5 ovarian = test system: OVCAR-5 ovarian
K-562 leukemia = test system: K-562 leukemia
A549 NSCLC = test system: A549 NSCLC
UACC-257 melanoma = test system: UACC-257 melanoma
BT-549 breast = test system: BT-549 breast
HOP-62 NSCLC = test system: HOP-62 NSCLC
CAKI-1 renal = test system: CAKI-1 renal
SK-MEL-2 melanoma = test system: SK-MEL-2 melanoma
HT29 colon = test system: HT29 colon
HCC-2998 colon = test system: HCC-2998 colon
SF-539 CNS = test system: SF-539 CNS
HCT-15 colon = test system: HCT-15 colon
OVCAR-3 ovarian = test system: OVCAR-3 ovarian
SR leukemia = test system: SR leukemia
SW-620 colon = test system: SW-620 colon
HOP-92 NSCLC = test system: HOP-92 NSCLC
UACC-62 melanoma = test system: UACC-62 melanoma
PC-3 prostate = test system: PC-3 prostate
TK-10 renal = test system: TK-10 renal
SNB-19 CNS = test system: SNB-19 CNS
UO-31 renal = test system: UO-31 renal
SK-MEL-28 melanoma = test system: SK-MEL-28 melanoma
A498 renal = test system: A498 renal
DU-145 prostate = test system: DU-145 prostate
NCI-H23 lung = test system: NCI-H23 lung
NCI-H460 lung = test system: NCI-H460 lung
RXF 393 renal = test system: RXF 393 renal
HL-60(TB) leukemia = test system: HL-60(TB) leukemia
NCI/ADR-RES ovarian = test system: NCI/ADR-RES ovarian
MDA-N = test system: MDA-N
RPMI-8226 leukemia = test system: RPMI-8226 leukemia
LOX IMVI melanoma = test system: LOX IMVI melanoma
IGROV1 ovarian = test system: IGROV1 ovarian
786-0 renal = test system: 786-0 renal
CCRF-CEM leukemia = test system: CCRF-CEM leukemia
U251 CNS = test system: U251 CNS
OVCAR-8 ovarian = test system: OVCAR-8 ovarian
SK-MEL-5 melanoma = test system: SK-MEL-5 melanoma
COLO 205 colon = test system: COLO 205 colon
SK-OV-3 ovarian = test system: SK-OV-3 ovarian
HCT-116 colon = test system: HCT-116 colon
SF-268 CNS = test system: SF-268 CNS
NCI-H226 lung = test system: NCI-H226 lung
MOLT-4 leukemia = test system: MOLT-4 leukemia
SNB-75 CNS = test system: SNB-75 CNS
SF-295 CNS = test system: SF-295 CNS
MALME-3M melanoma = test system: MALME-3M melanoma

Work on `CC(Oc1ccccc1Cl)C(=O)NN1C(=O)CSC1c1ccccc1` (stereo unspecified) yielded a TGI (MCF7 breast) greater than 100 µM, a TGI (MDA-MB-231 breast) greater than 100 µM and a TGI (EKVX NSCLC) greater than 100 µM. It also gave a TGI (M14 melanoma) greater than 100 µM, a TGI (KM12 colon) greater than 100 µM and a TGI (T-47D breast) greater than 100 µM. For the same molecule, the TGI (NCI-H522 lung) was greater than 100 µM, the TGI (HS 578T breast) was greater than 100 µM and the TGI (OVCAR-4 ovarian) was greater than 100 µM. The TGI (ACHN renal) was greater than 100 µM, the TGI (SN12C renal) was greater than 100 µM and the TGI (MDA-MB-435) was greater than 100 µM. For the same molecule, the TGI (OVCAR-5 ovarian) was greater than 100 µM, the TGI (K-562 leukemia) was greater than 100 µM and the TGI (A549 NSCLC) was greater than 100 µM. It also gave a TGI (UACC-257 melanoma) greater than 100 µM, a TGI (BT-549 breast) greater than 100 µM and a TGI (HOP-62 NSCLC) greater than 100 µM. The TGI (CAKI-1 renal) was greater than 100 µM, the TGI (SK-MEL-2 melanoma) was greater than 100 µM and the TGI (HT29 colon) was greater than 100 µM. For the same molecule, the TGI (HCC-2998 colon) was greater than 100 µM, the TGI (SF-539 CNS) was greater than 100 µM and the TGI (HCT-15 colon) was greater than 100 µM. It also gave a TGI (OVCAR-3 ovarian) greater than 100 µM, a TGI (SR leukemia) greater than 100 µM and a TGI (SW-620 colon) greater than 100 µM. It also gave a TGI (HOP-92 NSCLC) greater than 100 µM, a TGI (UACC-62 melanoma) greater than 100 µM and a TGI (PC-3 prostate) greater than 100 µM. The TGI (TK-10 renal) was greater than 100 µM, the TGI (SNB-19 CNS) was greater than 100 µM and the TGI (UO-31 renal) was greater than 100 µM. For the same molecule, the TGI (SK-MEL-28 melanoma) was greater than 100 µM, the TGI (A498 renal) was greater than 100 µM and the TGI (DU-145 prostate) was greater than 100 µM. The TGI (NCI-H23 lung) was greater than 100 µM, the TGI (NCI-H460 lung) was greater than 100 µM and the TGI (RXF 393 renal) was greater than 100 µM. The TGI (HL-60(TB) leukemia) was 83.7 µM, the TGI (NCI/ADR-RES ovarian) was greater than 100 µM and the TGI (MDA-N) was greater than 100 µM. For the same molecule, the TGI (RPMI-8226 leukemia) was greater than 100 µM, the TGI (LOX IMVI melanoma) was greater than 100 µM and the TGI (IGROV1 ovarian) was greater than 100 µM. The TGI (786-0 renal) was greater than 100 µM, the TGI (CCRF-CEM leukemia) was greater than 100 µM and the TGI (U251 CNS) was greater than 100 µM. The TGI (OVCAR-8 ovarian) was greater than 100 µM, the TGI (SK-MEL-5 melanoma) was greater than 100 µM and the TGI (COLO 205 colon) was greater than 100 µM. The TGI (SK-OV-3 ovarian) was greater than 100 µM, the TGI (HCT-116 colon) was greater than 100 µM and the TGI (SF-268 CNS) was greater than 100 µM. It also gave a TGI (NCI-H226 lung) greater than 100 µM, a TGI (MOLT-4 leukemia) greater than 100 µM and a TGI (SNB-75 CNS) greater than 100 µM. The TGI (SF-295 CNS) was greater than 100 µM.

For `Nc1ccc(S(=O)(=O)Nc2nc3ccccc3nc2N2CCCCCC2)cc1`, the TGI (MCF7 breast) was greater than 100 µM, the TGI (MDA-MB-231 breast) was greater than 100 µM and the TGI (EKVX NSCLC) was greater than 100 µM. The TGI (M14 melanoma) was greater than 100 µM, the TGI (KM12 colon) was greater than 100 µM and the TGI (T-47D breast) was greater than 100 µM. For the same molecule, the TGI (NCI-H522 lung) was greater than 100 µM, the TGI (HS 578T breast) was greater than 100 µM and the TGI (OVCAR-4 ovarian) was 50.9 µM. The TGI (ACHN renal) was greater than 100 µM, the TGI (SN12C renal) was 44.9 µM and the TGI (MDA-MB-435) was 41.1 µM. The TGI (OVCAR-5 ovarian) was greater than 100 µM, the TGI (K-562 leukemia) was 52 µM and the TGI (A549 NSCLC) was greater than 100 µM. It also gave a TGI (UACC-257 melanoma) greater than 100 µM, a TGI (BT-549 breast) of 28.2 µM and a TGI (HOP-62 NSCLC) of 52.6 µM. For the same molecule, the TGI (CAKI-1 renal) was 82.7 µM, the TGI (SK-MEL-2 melanoma) was 40.8 µM and the TGI (HT29 colon) was greater than 100 µM. For the same molecule, the TGI (HCC-2998 colon) was 33.4 µM, the TGI (SF-539 CNS) was 35.7 µM and the TGI (HCT-15 colon) was 95.5 µM. The TGI (OVCAR-3 ovarian) was 40.2 µM, the TGI (SR leukemia) was greater than 100 µM and the TGI (SW-620 colon) was 54.1 µM. For the same molecule, the TGI (HOP-92 NSCLC) was 63.6 µM, the TGI (UACC-62 melanoma) was 39.8 µM and the TGI (PC-3 prostate) was greater than 100 µM. The TGI (TK-10 renal) was greater than 100 µM, the TGI (SNB-19 CNS) was greater than 100 µM and the TGI (UO-31 renal) was 40.8 µM. It also gave a TGI (SK-MEL-28 melanoma) of 39.4 µM, a TGI (DU-145 prostate) greater than 100 µM and a TGI (NCI-H23 lung) of 47.7 µM. It also gave a TGI (NCI-H460 lung) of 61.2 µM, a TGI (RXF 393 renal) of 35.5 µM and a TGI (HL-60(TB) leukemia) of 52 µM. It also gave a TGI (NCI/ADR-RES ovarian) greater than 100 µM, a TGI (MDA-N) greater than 100 µM and a TGI (RPMI-8226 leukemia) of 42.5 µM. The TGI (LOX IMVI melanoma) was 33.5 µM, the TGI (IGROV1 ovarian) was greater than 100 µM and the TGI (786-0 renal) was greater than 100 µM. For the same molecule, the TGI (MALME-3M melanoma) was 85.9 µM, the TGI (CCRF-CEM leukemia) was greater than 100 µM and the TGI (U251 CNS) was 46.4 µM. It also gave a TGI (OVCAR-8 ovarian) greater than 100 µM, a TGI (SK-MEL-5 melanoma) of 30.1 µM and a TGI (COLO 205 colon) of 33.4 µM. It also gave a TGI (SK-OV-3 ovarian) greater than 100 µM, a TGI (HCT-116 colon) of 33.2 µM and a TGI (SF-268 CNS) greater than 100 µM. For the same molecule, the TGI (NCI-H226 lung) was greater than 100 µM, the TGI (MOLT-4 leukemia) was 55.3 µM and the TGI (SNB-75 CNS) was greater than 100 µM. For the same molecule, the TGI (SF-295 CNS) was 57.3 µM.
